The source of these data is article PMC2957478 (Bioorganic & medicinal chemistry letters, 2009).

The target in this test is PAI-1 (Homo sapiens, UniProt P05121). Particulars: for inhibitory activity towards PAI-1 (in words): in vitro.
Sequence of PAI-1 (P05121 24-402, species assumed): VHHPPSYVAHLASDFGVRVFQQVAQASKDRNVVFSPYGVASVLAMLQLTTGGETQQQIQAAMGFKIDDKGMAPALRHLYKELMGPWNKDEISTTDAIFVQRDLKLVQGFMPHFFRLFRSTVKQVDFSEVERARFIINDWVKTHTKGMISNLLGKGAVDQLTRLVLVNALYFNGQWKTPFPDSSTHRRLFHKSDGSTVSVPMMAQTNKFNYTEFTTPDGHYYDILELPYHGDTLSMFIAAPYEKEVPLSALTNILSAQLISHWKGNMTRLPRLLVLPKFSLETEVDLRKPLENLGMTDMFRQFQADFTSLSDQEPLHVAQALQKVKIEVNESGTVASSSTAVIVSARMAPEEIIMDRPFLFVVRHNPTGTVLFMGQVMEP

Turning to `CCN(CCN(CC)S(=O)(=O)c1ccc(O)c(O)c1)S(=O)(=O)c1ccc(O)c(O)c1` [3b], the “increase in inhibitor potency against PAI-1 compared to the non-alkylated version 3a” value (ratio of IC50 values vs 3a) is “about 55 fold”.

On to `O=S(=O)(c1ccc(O)c(O)c1)N1CCN(S(=O)(=O)c2ccc(O)c(O)c2)CC1` [compound 4], for which the “inhibitory activity towards PAI-1 (in words)” value is given as “lacked significant inhibitory activity towards PAI-1”.

As for `CCN(CCN(CC)S(=O)(=O)c1cc(O)ccc1O)S(=O)(=O)c1cc(O)ccc1O` [compound 7], the “inhibitory activity towards PAI-1 (in words)” value is “lacked significant potency towards PAI-1”.

`CCN(CCN(CC)S(=O)(=O)c1cc(F)c(O)c(F)c1)S(=O)(=O)c1cc(F)c(O)c(F)c1` [compound 13, bis-3,5-difluoro-4-hydroxybenzenesulfonamide]: the “fold less potent against PAI-1 than the 3,4-dihydroxy version (3b)” value (ratio of IC50 values vs 3b) is recorded as “roughly 15 fold”.
